Test results reported in ChEMBL document CHEMBL5291721, “A preclinical secondary pharmacology resource illuminates target-adverse drug reaction associations of marketed drugs” (Nat Commun, 2023).

How the values were obtained:
[1] = target: T1, Muscarinic acetylcholine receptor M2 (Homo sapiens, UniProt P08172); type: functional, cell-based
T1 sequence (P08172 whole entry): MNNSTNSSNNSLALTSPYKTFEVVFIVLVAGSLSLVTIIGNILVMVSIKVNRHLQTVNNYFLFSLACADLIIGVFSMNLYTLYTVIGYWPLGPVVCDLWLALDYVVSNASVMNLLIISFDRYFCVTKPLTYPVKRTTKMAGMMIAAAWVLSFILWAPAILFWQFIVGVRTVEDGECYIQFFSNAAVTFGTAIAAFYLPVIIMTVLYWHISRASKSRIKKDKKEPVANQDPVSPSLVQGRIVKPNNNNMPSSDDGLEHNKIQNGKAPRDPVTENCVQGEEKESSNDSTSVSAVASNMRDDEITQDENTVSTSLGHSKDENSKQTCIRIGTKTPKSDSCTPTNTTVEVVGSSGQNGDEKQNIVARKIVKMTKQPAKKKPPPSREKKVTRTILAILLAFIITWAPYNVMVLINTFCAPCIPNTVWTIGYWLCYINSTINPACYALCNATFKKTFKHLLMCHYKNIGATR

Progesterone receptor [2] = target: T2, Progesterone receptor (Homo sapiens, UniProt P06401); type: functional
T2 sequence (P06401 whole entry): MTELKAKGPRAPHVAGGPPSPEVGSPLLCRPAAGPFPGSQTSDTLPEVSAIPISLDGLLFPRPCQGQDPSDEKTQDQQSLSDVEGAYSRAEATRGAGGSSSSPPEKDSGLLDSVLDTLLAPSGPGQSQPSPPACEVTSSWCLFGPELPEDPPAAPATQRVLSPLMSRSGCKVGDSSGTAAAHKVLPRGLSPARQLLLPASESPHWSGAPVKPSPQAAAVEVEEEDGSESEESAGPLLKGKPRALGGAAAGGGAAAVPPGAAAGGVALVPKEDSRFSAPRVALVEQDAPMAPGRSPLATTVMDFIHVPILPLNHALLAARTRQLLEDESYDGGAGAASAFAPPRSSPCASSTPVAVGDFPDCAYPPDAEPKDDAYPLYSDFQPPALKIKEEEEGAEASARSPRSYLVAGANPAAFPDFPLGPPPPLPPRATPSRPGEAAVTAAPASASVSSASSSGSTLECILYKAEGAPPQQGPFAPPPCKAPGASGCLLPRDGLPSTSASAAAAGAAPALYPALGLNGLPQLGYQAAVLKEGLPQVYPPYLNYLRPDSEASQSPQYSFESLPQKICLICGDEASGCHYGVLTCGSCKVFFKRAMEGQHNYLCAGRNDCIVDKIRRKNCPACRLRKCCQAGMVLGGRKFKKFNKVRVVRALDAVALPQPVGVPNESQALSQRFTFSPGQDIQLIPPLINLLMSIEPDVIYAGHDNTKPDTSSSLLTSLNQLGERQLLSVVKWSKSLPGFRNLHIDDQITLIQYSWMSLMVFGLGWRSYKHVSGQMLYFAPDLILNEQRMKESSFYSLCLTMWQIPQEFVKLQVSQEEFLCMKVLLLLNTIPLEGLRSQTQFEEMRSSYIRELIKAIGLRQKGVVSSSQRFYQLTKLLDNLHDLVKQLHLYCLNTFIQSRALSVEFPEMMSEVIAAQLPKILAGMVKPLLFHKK

Mu-type opioid receptor = Mu-type opioid receptor (Homo sapiens, UniProt P35372)
[3] = target: T3, Alpha-1A adrenergic receptor (Homo sapiens, UniProt P35348); type: functional, cell-based
T3 sequence (P35348 whole entry): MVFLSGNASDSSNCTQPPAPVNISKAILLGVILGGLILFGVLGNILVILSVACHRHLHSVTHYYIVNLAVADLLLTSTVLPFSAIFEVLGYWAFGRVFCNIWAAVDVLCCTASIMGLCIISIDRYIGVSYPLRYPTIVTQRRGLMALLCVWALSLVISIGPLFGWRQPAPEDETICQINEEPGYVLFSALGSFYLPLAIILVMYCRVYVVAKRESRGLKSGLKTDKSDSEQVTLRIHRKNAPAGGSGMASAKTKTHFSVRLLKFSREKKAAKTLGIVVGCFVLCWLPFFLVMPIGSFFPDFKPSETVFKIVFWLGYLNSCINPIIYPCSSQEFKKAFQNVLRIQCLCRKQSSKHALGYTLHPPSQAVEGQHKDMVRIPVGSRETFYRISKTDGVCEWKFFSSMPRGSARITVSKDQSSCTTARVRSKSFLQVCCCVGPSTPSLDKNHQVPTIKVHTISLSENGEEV

[4] = target: cGMP-inhibited 3',5'-cyclic phosphodiesterase 3A (Homo sapiens, UniProt Q14432); type: functional
Progesterone receptor [5] = target: T2, Progesterone receptor
[6] = target: Prostaglandin G/H synthase 1 (Homo sapiens, UniProt P23219); type: functional
Thromboxane A2 receptor = target: T4, Thromboxane A2 receptor (Homo sapiens, UniProt P21731); type: functional, cell-based
T4 sequence (P21731 whole entry): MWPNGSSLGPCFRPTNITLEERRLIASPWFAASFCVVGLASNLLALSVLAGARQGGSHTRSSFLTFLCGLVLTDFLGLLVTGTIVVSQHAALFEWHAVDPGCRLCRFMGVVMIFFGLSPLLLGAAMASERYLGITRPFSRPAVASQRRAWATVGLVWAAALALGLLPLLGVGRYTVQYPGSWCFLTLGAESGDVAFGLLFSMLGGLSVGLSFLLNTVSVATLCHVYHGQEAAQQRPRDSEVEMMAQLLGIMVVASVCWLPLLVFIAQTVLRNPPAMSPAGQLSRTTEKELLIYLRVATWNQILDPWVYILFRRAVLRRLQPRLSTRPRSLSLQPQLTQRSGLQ

[7] = target: Gamma-aminobutyric acid receptor subunit alpha-1/alpha-2/beta-2/gamma-2 (Homo sapiens, UniProt P14867+P18507+P47869+P47870); type: protein-complex assay
Also: assay procedure not described here.

Mu-type opioid receptor, sequence (P35372 whole entry): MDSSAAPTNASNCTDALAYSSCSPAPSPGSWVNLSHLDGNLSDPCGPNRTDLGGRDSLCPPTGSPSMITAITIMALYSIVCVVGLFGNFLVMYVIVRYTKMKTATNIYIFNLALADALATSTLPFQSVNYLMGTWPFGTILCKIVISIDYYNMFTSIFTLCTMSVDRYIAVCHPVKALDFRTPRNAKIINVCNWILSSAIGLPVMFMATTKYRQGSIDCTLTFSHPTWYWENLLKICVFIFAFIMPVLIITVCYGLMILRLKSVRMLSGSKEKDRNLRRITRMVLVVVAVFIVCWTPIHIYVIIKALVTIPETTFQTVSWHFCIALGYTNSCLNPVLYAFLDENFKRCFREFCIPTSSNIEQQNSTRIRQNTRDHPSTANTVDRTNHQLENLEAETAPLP
Prostaglandin G/H synthase 1, sequence (P23219 whole entry): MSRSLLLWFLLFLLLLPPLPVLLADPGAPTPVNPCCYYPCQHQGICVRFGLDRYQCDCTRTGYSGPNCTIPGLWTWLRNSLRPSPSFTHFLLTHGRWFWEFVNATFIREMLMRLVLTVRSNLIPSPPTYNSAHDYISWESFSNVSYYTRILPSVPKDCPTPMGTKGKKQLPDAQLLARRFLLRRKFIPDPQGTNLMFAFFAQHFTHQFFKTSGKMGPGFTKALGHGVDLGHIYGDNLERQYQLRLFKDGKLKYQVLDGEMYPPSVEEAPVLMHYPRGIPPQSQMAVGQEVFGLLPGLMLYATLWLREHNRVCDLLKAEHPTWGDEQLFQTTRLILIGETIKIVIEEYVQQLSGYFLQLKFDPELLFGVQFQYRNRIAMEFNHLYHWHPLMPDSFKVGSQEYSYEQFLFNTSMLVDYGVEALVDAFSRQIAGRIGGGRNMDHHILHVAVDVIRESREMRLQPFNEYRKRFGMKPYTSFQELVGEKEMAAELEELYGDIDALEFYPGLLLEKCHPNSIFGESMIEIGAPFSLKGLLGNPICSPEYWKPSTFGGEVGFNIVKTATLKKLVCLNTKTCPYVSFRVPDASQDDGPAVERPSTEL
cGMP-inhibited 3',5'-cyclic phosphodiesterase 3A, sequence (Q14432 whole entry): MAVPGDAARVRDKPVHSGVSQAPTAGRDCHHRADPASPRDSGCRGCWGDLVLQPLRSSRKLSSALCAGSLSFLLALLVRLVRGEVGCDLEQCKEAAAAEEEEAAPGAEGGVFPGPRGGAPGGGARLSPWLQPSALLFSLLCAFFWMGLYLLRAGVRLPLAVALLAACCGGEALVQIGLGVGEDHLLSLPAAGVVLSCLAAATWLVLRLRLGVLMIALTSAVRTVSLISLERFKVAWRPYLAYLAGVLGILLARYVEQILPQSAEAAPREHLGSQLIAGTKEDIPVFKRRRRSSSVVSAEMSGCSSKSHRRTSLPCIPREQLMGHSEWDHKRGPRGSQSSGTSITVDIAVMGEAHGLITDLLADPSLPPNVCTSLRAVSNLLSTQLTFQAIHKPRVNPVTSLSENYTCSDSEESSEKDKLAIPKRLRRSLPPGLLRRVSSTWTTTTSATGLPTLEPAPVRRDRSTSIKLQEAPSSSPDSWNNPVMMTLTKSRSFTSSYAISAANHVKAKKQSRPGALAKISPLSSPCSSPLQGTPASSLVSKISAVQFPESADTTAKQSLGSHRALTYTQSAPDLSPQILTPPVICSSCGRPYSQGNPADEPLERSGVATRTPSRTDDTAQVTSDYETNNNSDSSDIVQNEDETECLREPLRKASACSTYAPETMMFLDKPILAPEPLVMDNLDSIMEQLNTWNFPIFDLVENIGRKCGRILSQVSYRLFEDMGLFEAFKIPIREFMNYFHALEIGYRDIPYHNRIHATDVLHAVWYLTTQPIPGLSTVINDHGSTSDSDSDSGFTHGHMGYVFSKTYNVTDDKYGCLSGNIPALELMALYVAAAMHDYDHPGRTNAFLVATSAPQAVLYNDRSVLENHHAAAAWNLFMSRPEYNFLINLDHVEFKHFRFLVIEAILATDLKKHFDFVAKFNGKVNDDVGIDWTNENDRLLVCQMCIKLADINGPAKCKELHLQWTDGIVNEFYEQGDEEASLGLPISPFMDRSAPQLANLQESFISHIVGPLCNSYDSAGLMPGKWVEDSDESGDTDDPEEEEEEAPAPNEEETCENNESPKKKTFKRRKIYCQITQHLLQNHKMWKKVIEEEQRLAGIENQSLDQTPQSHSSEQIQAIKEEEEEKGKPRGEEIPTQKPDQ
Gamma-aminobutyric acid receptor subunit alpha-1/alpha-2/beta-2/gamma-2, sequence (P14867 whole entry): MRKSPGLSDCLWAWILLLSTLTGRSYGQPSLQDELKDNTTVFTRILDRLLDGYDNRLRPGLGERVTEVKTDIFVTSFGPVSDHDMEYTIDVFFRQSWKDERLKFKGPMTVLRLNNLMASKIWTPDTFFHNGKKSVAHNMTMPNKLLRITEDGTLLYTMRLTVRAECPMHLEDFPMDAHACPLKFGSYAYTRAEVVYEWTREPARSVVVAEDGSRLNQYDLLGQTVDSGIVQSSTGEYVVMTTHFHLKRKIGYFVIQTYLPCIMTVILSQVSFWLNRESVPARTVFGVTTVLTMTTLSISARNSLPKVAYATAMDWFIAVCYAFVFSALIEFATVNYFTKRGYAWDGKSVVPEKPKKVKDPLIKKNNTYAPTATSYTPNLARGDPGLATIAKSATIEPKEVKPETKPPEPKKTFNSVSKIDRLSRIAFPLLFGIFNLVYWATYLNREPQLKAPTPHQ
Gamma-aminobutyric acid receptor subunit alpha-1/alpha-2/beta-2/gamma-2, sequence (P47870 whole entry): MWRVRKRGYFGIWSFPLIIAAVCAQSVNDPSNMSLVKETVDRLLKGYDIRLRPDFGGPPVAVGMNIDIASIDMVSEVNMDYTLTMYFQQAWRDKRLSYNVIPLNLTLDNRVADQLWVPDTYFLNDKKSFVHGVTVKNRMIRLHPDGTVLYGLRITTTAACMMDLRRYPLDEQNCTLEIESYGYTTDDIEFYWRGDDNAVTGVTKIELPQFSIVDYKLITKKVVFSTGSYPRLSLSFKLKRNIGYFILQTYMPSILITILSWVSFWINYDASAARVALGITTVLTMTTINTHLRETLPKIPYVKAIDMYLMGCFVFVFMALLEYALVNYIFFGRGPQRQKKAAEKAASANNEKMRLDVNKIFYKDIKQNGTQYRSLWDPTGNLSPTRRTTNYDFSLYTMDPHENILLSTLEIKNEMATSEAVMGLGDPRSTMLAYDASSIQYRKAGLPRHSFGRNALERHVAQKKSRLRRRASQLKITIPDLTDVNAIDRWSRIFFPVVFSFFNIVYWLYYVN
Gamma-aminobutyric acid receptor subunit alpha-1/alpha-2/beta-2/gamma-2, sequence (P18507 whole entry): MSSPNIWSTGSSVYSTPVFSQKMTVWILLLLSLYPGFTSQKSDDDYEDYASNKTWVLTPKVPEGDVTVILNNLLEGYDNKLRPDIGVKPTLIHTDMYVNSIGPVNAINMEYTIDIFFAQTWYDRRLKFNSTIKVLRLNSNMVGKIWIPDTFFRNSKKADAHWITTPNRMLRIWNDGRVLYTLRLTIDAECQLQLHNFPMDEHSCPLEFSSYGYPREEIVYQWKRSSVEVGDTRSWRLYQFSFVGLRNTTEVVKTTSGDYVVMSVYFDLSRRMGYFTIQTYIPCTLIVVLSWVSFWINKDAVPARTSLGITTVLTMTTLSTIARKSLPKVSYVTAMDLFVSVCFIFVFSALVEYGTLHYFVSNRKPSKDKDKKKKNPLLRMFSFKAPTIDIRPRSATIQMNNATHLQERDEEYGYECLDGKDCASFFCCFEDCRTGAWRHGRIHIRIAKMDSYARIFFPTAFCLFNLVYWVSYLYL
Gamma-aminobutyric acid receptor subunit alpha-1/alpha-2/beta-2/gamma-2, sequence (P47869 whole entry): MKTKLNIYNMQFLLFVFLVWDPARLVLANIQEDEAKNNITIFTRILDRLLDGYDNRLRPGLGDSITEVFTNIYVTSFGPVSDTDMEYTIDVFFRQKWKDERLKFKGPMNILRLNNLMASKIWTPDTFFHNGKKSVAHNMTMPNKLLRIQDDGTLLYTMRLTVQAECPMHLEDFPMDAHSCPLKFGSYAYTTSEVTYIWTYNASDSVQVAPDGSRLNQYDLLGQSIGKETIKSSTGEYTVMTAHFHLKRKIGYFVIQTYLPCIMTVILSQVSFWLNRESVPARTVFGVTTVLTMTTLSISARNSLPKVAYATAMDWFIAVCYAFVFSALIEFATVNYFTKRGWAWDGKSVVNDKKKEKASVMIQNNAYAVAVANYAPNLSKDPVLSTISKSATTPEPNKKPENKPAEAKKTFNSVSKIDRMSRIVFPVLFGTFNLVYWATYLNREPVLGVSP

Row | SMILES | AC50 [1] | AC50 (Progesterone receptor [2]) | AC50 (Mu-type opioid receptor) | AC50 [3] | AC50 [4] | AC50 (Progesterone receptor [5]) | AC50 [6] | AC50 (Thromboxane A2 receptor) | AC50 [7]
1 | CO/N=C(\C(=O)N[C@@H]1C(=O)N2C(C(=O)[O-])=C(C[N+]3(C)CCCC3)CS[C@H]12)c1csc(N)n1 | > 300 µM | > 300 µM | > 300 µM | > 300 µM |  |  |  |  | 
2 | CCOC(=O)[C@H](CCc1ccccc1)N[C@@H](C)C(=O)N1CCC[C@H]1C(=O)O | > 10 µM |  | > 10 µM | > 30 µM |  |  |  |  | 
3 | C[C@H]1O[C@H](O[C@H]2[C@H](O)[C@@H](O)[C@@H](O[C@H]3[C@H](O)[C@@H](O)C(O)O[C@@H]3CO)O[C@@H]2CO)[C@H](O)[C@@H](O)[C@@H]1N[C@H]1C=C(CO)[C@@H](O)[C@H](O)[C@H]1O (some centres undefined) [ACARBOSE] | > 10 µM | > 30 µM | > 10 µM | > 30 µM | 17.6 µM | > 30 µM | > 30 µM | > 30 µM | 
4 | CC(=O)c1ccc2c(c1)N(CCCN1CCN(CCO)CC1)c1ccccc1S2 [ACETOPHENAZINE] | > 10 µM | > 30 µM | > 30 µM | 0.0045 µM |  |  |  |  | 
5 | COC(=O)N[C@H](C(=O)N[C@@H](Cc1ccccc1)[C@@H](O)CN(Cc1ccc(-c2ccccn2)cc1)NC(=O)[C@@H](NC(=O)OC)C(C)(C)C)C(C)(C)C [ATAZANAVIR] | > 10 µM | > 30 µM | > 30 µM |  |  |  |  |  | 
6 | CN1CCCC(n2nc(Cc3ccc(Cl)cc3)c3ccccc3c2=O)CC1 (centres undefined) [AZELASTINE] |  | > 30 µM | 23 µM | 1.1 µM |  |  |  |  | 
7 | CCC[C@@H]1C[C@@H](C(=O)N[C@@H]([C@H]2O[C@H](SC)[C@H](O)[C@@H](O)[C@H]2O)[C@H](C)Cl)N(C)C1 [CLINDAMYCIN] | > 10 µM |  | > 30 µM | > 30 µM |  |  |  |  | 
8 | C[N+](C)(C)CCCCCCCCCC[N+](C)(C)C [DECAMETHONIUM] |  |  |  |  | > 30 µM |  | > 30 µM | > 30 µM | > 30 µM
9 | O=C(O)c1cc(-c2ccc(F)cc2F)ccc1O [DIFLUNISAL] | > 10 µM | > 10 µM | > 30 µM |  |  |  |  |  | 
10 | COC(=O)[C@@H]1CC2=CC(=O)CC[C@]2(C)[C@@]23O[C@@H]2C[C@@]2(C)[C@@H](CC[C@@]24CCC(=O)O4)[C@H]13 [EPLERENONE] | > 30 µM |  | > 30 µM | > 30 µM |  |  |  |  | 
11 | C#C[C@]1(O)CC[C@H]2[C@@H]3CCc4cc(O)ccc4[C@H]3CC[C@@]21C [ETHINYL ESTRADIOL] | > 10 µM |  | > 30 µM |  | > 30 µM | 0.02 µM | > 30 µM | > 30 µM | 
12 | NC(N)=Nc1nc(CSCCC(N)=NS(N)(=O)=O)cs1 [FAMOTIDINE] | > 10 µM |  | > 10 µM | > 30 µM |  |  |  |  | 
13 | C[C@@H]1O[C@@H]1P(=O)(O)O [FOSFOMYCIN] | > 10 µM | > 30 µM | > 30 µM |  |  |  |  |  | 
14 | NS(=O)(=O)c1cc2c(cc1Cl)NCNS2(=O)=O [HYDROCHLOROTHIAZIDE] | > 10 µM |  | > 10 µM |  |  |  |  |  | 
15 | CC(C)Cc1ccc(CC(=O)O)cc1 [IBUFENAC] | > 30 µM | > 30 µM | > 30 µM | > 30 µM |  |  |  |  | 
16 | CC(C)NNC(=O)c1ccncc1 [IPRONIAZID] | > 30 µM | > 30 µM | > 30 µM | > 30 µM |  |  |  |  | 

Row | SMILES | AC50 [1] | AC50 (Progesterone receptor [2]) | AC50 (Mu-type opioid receptor) | AC50 [3] | AC50 [4] | AC50 (Progesterone receptor [5]) | AC50 [6] | AC50 (Thromboxane A2 receptor) | AC50 [7]
17 | NC[C@H]1O[C@H](O[C@H]2[C@H](O)[C@@H](O[C@H]3O[C@H](CO)[C@@H](O)[C@H](N)[C@H]3O)[C@H](N)C[C@@H]2N)[C@H](O)[C@@H](O)[C@@H]1O [KANAMYCIN] | > 10 µM | > 10 µM | > 30 µM | > 30 µM |  |  |  |  | 
18 | CN1C(=O)CC(C)(c2ccccc2)C1=O (centres undefined) [METHSUXIMIDE] | > 10 µM | > 10 µM | > 30 µM |  |  |  |  |  | 
19 | C[C@H]1C[C@@H]2[C@H]([C@@H](O)C[C@@]3(C)[C@H]2CC[C@]3(O)C(=O)CO)[C@@]2(C)C=CC(=O)C=C12 [METHYLPREDNISOLONE] | > 10 µM | 1.3 µM | > 30 µM |  |  |  |  |  | 
20 | CCN(CC)CCNC(=O)c1cc(Cl)c(N)cc1OC [METOCLOPRAMIDE] |  |  | > 30 µM | > 30 µM |  |  |  |  | 
21 | CC(C)(C(=O)c1cccnc1)c1cccnc1 [METYRAPONE] | > 10 µM | > 10 µM | > 30 µM |  |  |  |  |  | 
22 | COC(=O)C1=C(C)NC(C)=C(C(=O)OCC(C)C)C1c1ccccc1[N+](=O)[O-] (centres undefined) [NISOLDIPINE] | > 10 µM | > 30 µM | 9.4 µM | 11 µM |  |  |  |  | 
23 | NC1=NC(=O)C(c2ccccc2)O1 (centres undefined) [PEMOLINE] | > 10 µM |  | > 30 µM |  |  |  |  |  | 
24 | CCc1ccc(CCOc2ccc(CC3SC(=O)NC3=O)cc2)nc1 (centres undefined) [PIOGLITAZONE] | > 10 µM |  | > 10 µM |  | > 30 µM | > 30 µM | > 30 µM | > 30 µM | 
25 | CC[C@H](C)C(=O)O[C@H]1C[C@H](O)C=C2C=C[C@H](C)[C@H](CC[C@@H](O)C[C@@H](O)CC(=O)O)[C@H]21 [PRAVASTATIN] | > 30 µM | > 30 µM | > 30 µM | > 30 µM |  |  |  |  | 
26 | O=C(NC[C@H]1CN(c2ccc(N3CCOCC3=O)cc2)C(=O)O1)c1ccc(Cl)s1 [RIVAROXABAN] | > 30 µM | > 30 µM | > 30 µM | > 30 µM | > 30 µM | > 30 µM | > 30 µM | > 30 µM | 
27 | CNC(=O)c1cc(Oc2ccc(NC(=O)Nc3ccc(Cl)c(C(F)(F)F)c3)cc2)ccn1 [SORAFENIB] | > 30 µM | > 30 µM | > 30 µM | 15 µM |  |  |  |  | 
28 | CC(C(=O)O)c1ccc(C(=O)c2cccs2)cc1 (centres undefined) [SUPROFEN] | > 10 µM | > 10 µM | > 30 µM |  |  |  |  |  | 
29 | Cc1ccc(C(=O)c2cc(O)c(O)c([N+](=O)[O-])c2)cc1 [TOLCAPONE] | > 10 µM | > 30 µM | > 30 µM |  |  |  |  |  | 
30 | NC[C@H]1CC[C@H](C(=O)O)CC1 [TRANEXAMIC ACID] | > 10 µM | > 10 µM | > 30 µM |  |  |  |  |  | 
31 | OCc1cc([C@@H](O)CNCCCCCCOCCOCc2c(Cl)cccc2Cl)ccc1O [VILANTEROL] | > 30 µM | > 30 µM | > 30 µM |  |  |  |  |  | 
32 | O=C(CCCCCCC(=O)Nc1ccccc1)NO [VORINOSTAT] | > 30 µM | > 30 µM | > 30 µM | > 30 µM |  |  |  |  | 
